Source: PMC8909834, “An Orally Bioavailable and Highly Efficacious Inhibitor of CDK9/FLT3 for the Treatment of Acute Myeloid Leukemia” (Cancers, 2022)

What was measured:
Assay in all cases: Kinase Hotspot radiolabel assay
Type in all cases: biochemical
Details in all cases: read-out: % Residual Activity
EPHA6 = target: T1, EPHA6 (Homo sapiens, UniProt Q9UF33)
T1 construct: purchased Reaction Biology Corporation (Kinase HotSpot)
Procedure, shortened: (§1)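 Inhibition measured by a radiolabel Hotspot kinase assay as part of a 369-kinase specificity panel, with the compound at 1 µM. Kinases inhibited by more than 90% went on to Ki determination.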

DDR1 = target: T2, DDR1 (Homo sapiens, UniProt Q08345)
T2 construct: purchased Reaction Biology Corporation (Kinase HotSpot)
T2 sequence (Q08345 19-913): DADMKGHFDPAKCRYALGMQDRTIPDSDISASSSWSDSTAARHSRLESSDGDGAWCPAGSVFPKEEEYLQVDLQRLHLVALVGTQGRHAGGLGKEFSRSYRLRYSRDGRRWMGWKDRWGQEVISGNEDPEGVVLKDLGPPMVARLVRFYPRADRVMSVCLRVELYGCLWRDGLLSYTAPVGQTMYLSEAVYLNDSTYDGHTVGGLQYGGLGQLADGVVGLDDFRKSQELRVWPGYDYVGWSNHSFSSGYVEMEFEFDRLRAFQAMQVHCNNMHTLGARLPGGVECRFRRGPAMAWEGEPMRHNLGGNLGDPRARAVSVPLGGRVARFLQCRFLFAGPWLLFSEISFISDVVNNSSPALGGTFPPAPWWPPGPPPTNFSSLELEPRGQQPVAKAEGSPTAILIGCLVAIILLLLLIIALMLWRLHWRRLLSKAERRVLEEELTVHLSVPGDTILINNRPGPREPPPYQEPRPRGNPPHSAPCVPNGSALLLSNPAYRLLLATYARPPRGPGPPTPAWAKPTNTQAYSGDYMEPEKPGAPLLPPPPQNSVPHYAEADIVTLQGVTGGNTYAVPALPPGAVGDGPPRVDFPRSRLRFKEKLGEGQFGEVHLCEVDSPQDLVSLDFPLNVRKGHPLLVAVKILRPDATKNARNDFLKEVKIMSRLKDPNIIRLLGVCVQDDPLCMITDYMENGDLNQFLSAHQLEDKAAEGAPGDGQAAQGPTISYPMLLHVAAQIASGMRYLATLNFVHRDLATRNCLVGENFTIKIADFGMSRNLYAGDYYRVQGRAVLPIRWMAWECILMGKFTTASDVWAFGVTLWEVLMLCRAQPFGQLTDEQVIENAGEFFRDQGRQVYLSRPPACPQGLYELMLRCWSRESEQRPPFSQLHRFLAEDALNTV
Procedure, shortened: as §1

PASK = target: T3, PASK (Homo sapiens, UniProt Q96RG2)
T3 construct: purchased Reaction Biology Corporation (Kinase HotSpot)
Procedure, shortened: as §1

c-Src = target: T4, c-Src (Homo sapiens, UniProt P12931)
T4 construct: purchased Reaction Biology Corporation (Kinase HotSpot)
Procedure, shortened: as §1

Aurora B = target: T5, Aurora B (Homo sapiens, UniProt Q96GD4)
T5 construct: purchased Reaction Biology Corporation (Kinase HotSpot)
T5 sequence (Q96GD4 whole entry): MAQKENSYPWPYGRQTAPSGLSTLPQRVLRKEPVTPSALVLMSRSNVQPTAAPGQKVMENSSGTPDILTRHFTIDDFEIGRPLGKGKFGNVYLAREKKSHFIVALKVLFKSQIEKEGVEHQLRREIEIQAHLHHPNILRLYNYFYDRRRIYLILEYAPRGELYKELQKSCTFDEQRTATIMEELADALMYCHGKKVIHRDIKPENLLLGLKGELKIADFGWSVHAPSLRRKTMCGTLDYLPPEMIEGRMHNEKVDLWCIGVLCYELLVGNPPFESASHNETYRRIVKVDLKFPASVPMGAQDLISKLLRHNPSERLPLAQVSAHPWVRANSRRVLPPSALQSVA
Procedure, shortened: as §1

MEKK1 = target: T6, MEKK1 (Homo sapiens, UniProt Q13233)
T6 construct: purchased Reaction Biology Corporation (Kinase HotSpot)
Procedure, shortened: as §1

MARK4 = target: T7, MARK4 (Homo sapiens, UniProt Q96L34)
T7 construct: purchased Reaction Biology Corporation (Kinase HotSpot)
Procedure, shortened: as §1

DCAMKL1 = target: T8, DCAMKL1 (Homo sapiens, UniProt O15075)
T8 construct: purchased Reaction Biology Corporation (Kinase HotSpot)
T8 sequence (O15075 whole entry): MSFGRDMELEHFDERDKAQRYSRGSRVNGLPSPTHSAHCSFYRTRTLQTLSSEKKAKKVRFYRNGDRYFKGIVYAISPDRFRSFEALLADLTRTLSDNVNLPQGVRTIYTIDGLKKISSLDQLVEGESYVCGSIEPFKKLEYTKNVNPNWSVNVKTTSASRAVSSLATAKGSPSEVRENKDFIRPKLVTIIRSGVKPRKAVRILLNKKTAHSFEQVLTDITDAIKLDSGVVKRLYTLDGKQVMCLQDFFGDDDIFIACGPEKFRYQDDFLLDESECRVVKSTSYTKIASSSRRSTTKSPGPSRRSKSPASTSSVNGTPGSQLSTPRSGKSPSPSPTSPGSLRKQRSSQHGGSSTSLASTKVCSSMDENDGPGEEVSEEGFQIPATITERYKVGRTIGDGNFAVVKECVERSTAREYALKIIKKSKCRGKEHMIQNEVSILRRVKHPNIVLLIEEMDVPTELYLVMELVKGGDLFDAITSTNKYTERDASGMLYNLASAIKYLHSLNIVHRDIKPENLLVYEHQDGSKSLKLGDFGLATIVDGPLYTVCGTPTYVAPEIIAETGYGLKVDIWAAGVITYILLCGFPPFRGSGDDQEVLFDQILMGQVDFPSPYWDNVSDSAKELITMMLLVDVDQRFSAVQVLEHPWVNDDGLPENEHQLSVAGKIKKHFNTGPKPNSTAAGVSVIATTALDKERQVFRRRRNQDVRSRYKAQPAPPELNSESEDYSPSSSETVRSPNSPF
Procedure, shortened: as §1

PKCa = target: T9, PKCa (Homo sapiens, UniProt P17252)
T9 construct: purchased Reaction Biology Corporation (Kinase HotSpot)
Procedure, shortened: as §1

PRKX = target: T10, PRKX (Homo sapiens, UniProt P51817)
T10 construct: purchased Reaction Biology Corporation (Kinase HotSpot)
Procedure, shortened: as §1

TYK2 = target: T11, TYK2 (Homo sapiens, UniProt P29597)
T11 construct: purchased Reaction Biology Corporation (Kinase HotSpot)
T11 sequence (P29597 whole entry): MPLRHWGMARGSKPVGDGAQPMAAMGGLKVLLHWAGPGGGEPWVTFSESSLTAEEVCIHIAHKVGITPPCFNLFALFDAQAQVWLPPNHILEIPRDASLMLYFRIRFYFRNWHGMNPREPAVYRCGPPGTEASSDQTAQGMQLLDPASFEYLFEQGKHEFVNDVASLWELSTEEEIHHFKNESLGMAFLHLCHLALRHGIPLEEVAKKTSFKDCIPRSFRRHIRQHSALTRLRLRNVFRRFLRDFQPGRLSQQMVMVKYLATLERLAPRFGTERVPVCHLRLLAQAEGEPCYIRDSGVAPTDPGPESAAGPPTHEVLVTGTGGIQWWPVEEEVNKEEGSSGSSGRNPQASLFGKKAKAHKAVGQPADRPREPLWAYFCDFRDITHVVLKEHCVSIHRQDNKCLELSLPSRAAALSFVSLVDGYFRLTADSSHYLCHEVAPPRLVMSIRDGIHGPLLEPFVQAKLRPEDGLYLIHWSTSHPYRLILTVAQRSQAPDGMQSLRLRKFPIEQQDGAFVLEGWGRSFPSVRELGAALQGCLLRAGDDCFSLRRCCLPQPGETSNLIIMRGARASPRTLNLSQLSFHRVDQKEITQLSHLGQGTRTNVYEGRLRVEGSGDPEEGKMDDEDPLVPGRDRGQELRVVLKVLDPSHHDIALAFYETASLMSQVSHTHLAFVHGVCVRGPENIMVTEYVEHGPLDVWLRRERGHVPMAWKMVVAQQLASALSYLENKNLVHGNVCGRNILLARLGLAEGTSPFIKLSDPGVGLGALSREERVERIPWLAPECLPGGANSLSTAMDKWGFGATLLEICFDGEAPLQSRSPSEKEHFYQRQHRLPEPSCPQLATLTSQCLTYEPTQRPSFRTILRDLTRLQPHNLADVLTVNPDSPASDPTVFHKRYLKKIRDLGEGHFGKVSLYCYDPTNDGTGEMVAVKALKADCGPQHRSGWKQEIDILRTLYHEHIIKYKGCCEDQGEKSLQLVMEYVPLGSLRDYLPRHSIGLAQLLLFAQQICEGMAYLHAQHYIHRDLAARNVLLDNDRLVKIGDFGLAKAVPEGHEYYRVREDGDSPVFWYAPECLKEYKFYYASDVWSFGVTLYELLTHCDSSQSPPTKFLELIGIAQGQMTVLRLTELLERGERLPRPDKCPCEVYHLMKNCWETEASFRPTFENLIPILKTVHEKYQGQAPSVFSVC
Procedure, shortened: as §1

ARK5/NUAK1 = target: T12, ARK5/NUAK1 (Homo sapiens, UniProt O60285)
T12 construct: purchased Reaction Biology Corporation (Kinase HotSpot)
Procedure, shortened: as §1

ERK5/MAPK7 = target: T13, ERK5/MAPK7 (Homo sapiens, UniProt Q13164)
T13 construct: purchased Reaction Biology Corporation (Kinase HotSpot)
Procedure, shortened: as §1

FGFR1 = target: T14, FGFR1 (Homo sapiens, UniProt P11362)
T14 construct: purchased Reaction Biology Corporation (Kinase HotSpot)
T14 sequence (P11362 22-822): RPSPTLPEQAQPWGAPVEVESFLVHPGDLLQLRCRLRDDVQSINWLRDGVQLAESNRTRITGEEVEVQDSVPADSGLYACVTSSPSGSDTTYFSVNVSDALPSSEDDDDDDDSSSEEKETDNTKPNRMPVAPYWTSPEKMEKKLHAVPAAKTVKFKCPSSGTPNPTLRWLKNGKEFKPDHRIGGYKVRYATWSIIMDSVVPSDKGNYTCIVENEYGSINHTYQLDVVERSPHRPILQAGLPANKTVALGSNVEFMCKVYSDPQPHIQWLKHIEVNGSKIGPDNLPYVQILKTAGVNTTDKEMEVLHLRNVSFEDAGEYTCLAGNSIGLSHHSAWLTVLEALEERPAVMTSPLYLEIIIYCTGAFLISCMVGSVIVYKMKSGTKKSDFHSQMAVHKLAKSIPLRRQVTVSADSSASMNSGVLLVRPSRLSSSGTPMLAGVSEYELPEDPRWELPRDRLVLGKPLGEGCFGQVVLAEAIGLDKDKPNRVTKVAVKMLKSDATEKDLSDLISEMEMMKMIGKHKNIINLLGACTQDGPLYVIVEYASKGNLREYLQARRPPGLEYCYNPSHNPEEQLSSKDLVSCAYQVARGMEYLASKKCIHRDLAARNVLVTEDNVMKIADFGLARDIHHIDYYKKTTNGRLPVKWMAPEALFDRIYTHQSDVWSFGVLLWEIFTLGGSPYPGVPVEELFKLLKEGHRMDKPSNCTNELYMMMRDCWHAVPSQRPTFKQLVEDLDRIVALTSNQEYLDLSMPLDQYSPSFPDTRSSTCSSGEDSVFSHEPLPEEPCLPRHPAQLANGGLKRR
Procedure, shortened: as §1

FAK/PTK2 = target: T15, FAK/PTK2 (Homo sapiens, UniProt Q05397)
T15 construct: purchased Reaction Biology Corporation (Kinase HotSpot)
Procedure, shortened: as §1

PKN2/PRK2 = target: T16, PKN2/PRK2 (Homo sapiens, UniProt Q16513)
T16 construct: purchased Reaction Biology Corporation (Kinase HotSpot)
Procedure, shortened: as §1

CDK4/cyclin D3 = target: T17, CDK4/cyclin D3 (Homo sapiens, UniProt P11802)
T17 construct: purchased Reaction Biology Corporation (Kinase HotSpot)
Procedure, shortened: as §1

SIK2 = target: T18, SIK2 (Homo sapiens, UniProt Q9H0K1)
T18 construct: purchased Reaction Biology Corporation (Kinase HotSpot)
Procedure, shortened: as §1

CDK1/cyclin E = target: T19, CDK1/cyclin E (Homo sapiens, UniProt P06493)
T19 construct: purchased Reaction Biology Corporation (Kinase HotSpot)
Procedure, shortened: as §1

KDR/VEGFR2 = target: T20, KDR/VEGFR2 (Homo sapiens, UniProt P35968)
T20 construct: purchased Reaction Biology Corporation (Kinase HotSpot)
Procedure, shortened: as §1

TLK2 = target: T21, TLK2 (Homo sapiens, UniProt Q86UE8)
T21 construct: purchased Reaction Biology Corporation (Kinase HotSpot)
Procedure, shortened: as §1

MAPKAPK3 = target: T22, MAPKAPK3 (Homo sapiens, UniProt Q16644)
T22 construct: purchased Reaction Biology Corporation (Kinase HotSpot)
T22 sequence (Q16644 whole entry): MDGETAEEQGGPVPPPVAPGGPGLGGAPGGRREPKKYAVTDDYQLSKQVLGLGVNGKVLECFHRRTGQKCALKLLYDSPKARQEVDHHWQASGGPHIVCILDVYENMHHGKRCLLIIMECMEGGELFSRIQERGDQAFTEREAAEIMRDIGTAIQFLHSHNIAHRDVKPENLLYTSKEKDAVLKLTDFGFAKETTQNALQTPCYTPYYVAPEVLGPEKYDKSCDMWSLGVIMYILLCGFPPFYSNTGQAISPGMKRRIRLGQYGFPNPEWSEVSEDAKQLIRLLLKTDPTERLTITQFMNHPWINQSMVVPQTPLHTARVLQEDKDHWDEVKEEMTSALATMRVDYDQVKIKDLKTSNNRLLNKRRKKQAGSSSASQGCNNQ
Procedure, shortened: as §1

MST4 = target: T23, MST4 (Homo sapiens, UniProt Q9P289)
T23 construct: purchased Reaction Biology Corporation (Kinase HotSpot)
Procedure, shortened: as §1

FGFR3 = target: T24, FGFR3 (Homo sapiens, UniProt P22607)
T24 construct: purchased Reaction Biology Corporation (Kinase HotSpot)
Procedure, shortened: as §1

NLK = target: T25, NLK (Homo sapiens, UniProt Q9UBE8)
T25 construct: purchased Reaction Biology Corporation (Kinase HotSpot)
Procedure, shortened: as §1

WNK2 = target: T26, WNK2 (Homo sapiens, UniProt Q9Y3S1)
T26 construct: purchased Reaction Biology Corporation (Kinase HotSpot)
Procedure, shortened: as §1

RSK4 = target: T27, RSK4 (Homo sapiens, UniProt Q9UK32)
T27 construct: purchased Reaction Biology Corporation (Kinase HotSpot)
Procedure, shortened: as §1

CDC7/DBF4 = target: T28, CDC7/DBF4 (Homo sapiens, UniProt O00311)
T28 construct: purchased Reaction Biology Corporation (Kinase HotSpot)
Procedure, shortened: as §1

AXL = target: T29, AXL (Homo sapiens, UniProt P30530)
T29 construct: purchased Reaction Biology Corporation (Kinase HotSpot)
Procedure, shortened: as §1

SIK1 = target: T30, SIK1 (Homo sapiens, UniProt P57059)
T30 construct: purchased Reaction Biology Corporation (Kinase HotSpot)
Procedure, shortened: as §1

Cc1cnc(N[C@H]2CC[C@H](N)CC2)nc1-c1cnc2ccc(-c3ccccc3)cn12 [CDDD11-8]
remaining activity at 1 µM (EPHA6): 88.4%
remaining activity at 1 µM (DDR1): 63.1%
remaining activity at 1 µM (PASK): 43.1%
remaining activity at 1 µM (c-Src): 49.5%
remaining activity at 1 µM (Aurora B): 89.6%
remaining activity at 1 µM (MEKK1): 103%
remaining activity at 1 µM (MARK4): 22.4%
remaining activity at 1 µM (DCAMKL1): 113%
remaining activity at 1 µM (PKCa): 76%
remaining activity at 1 µM (PRKX): 77.4%
remaining activity at 1 µM (TYK2): 93.2%
remaining activity at 1 µM (ARK5/NUAK1): 7.93%
remaining activity at 1 µM (ERK5/MAPK7): 93.3%
remaining activity at 1 µM (FGFR1): 96.8%
remaining activity at 1 µM (FAK/PTK2): 63.3%
remaining activity at 1 µM (PKN2/PRK2): 88.3%
remaining activity at 1 µM (CDK4/cyclin D3): 79.7%
remaining activity at 1 µM (SIK2): 35.8%
remaining activity at 1 µM (CDK1/cyclin E): 87.5%
remaining activity at 1 µM (KDR/VEGFR2): 86.9%
remaining activity at 1 µM (TLK2): 97.8%
remaining activity at 1 µM (MAPKAPK3): 91.8%
remaining activity at 1 µM (MST4): 92.9%
remaining activity at 1 µM (FGFR3): 92.8%
remaining activity at 1 µM (NLK): 83.4%
remaining activity at 1 µM (WNK2): 94.5%
remaining activity at 1 µM (RSK4): 43.4%
remaining activity at 1 µM (CDC7/DBF4): 109%
remaining activity at 1 µM (AXL): 44.4%
remaining activity at 1 µM (SIK1): 39.7%
